According to article PMC9616531 (Plant Biotechnology Journal, 2022):

Test system: UGT72B23
Assay: UDP-Glo glycosyltransferase assay
Assay type: biochemical, Camellia sinensis
Details: read-out: apparent Km; UDP-glucose co-substrate, pH 7.5, 40 °C

Km | Compound
31.2 µM | O=C(O[C@@H]1Cc2c(O)cc(O)cc2O[C@@H]1c1ccc(O)c(O)c1)c1cc(O)c(O)c(O)c1 [epicatechin gallate]
27.9 µM | O=C(O[C@@H]1Cc2c(O)cc(O)cc2O[C@@H]1c1cc(O)c(O)c(O)c1)c1cc(O)c(O)c(O)c1 [epigallocatechin gallate]
